Measurements: paper PMC5298231, “The Malaria Parasite's Lactate Transporter PfFNT Is the Target of Antiplasmodial Compounds Identified in Whole Cell Phenotypic Screens” (PLoS Pathogens, 2017)
Like-named read-outs stand apart in the source and are kept apart here.

Tested on: erythrocytes infected with 3D7 trophozoites
Type: cell-based, Plasmodium falciparum
Conditions: for Folate level, Log2 (treated vs control) / Geranylgeranyl pyrophosphate level, Log2 (treated vs control): sheet Log2; for Folate level, Log2 (treated vs control): medMz 440.132; for Geranylgeranyl pyrophosphate level, Log2 (treated vs control): medMz 449.186; for Ratio, Farnesyl diphosphate: metabolite Farnesyl diphosphate (medMz 381.123); for Ratio, Folate: metabolite Folate (medMz 440.132); for Ratio, Geranylgeranyl pyrophosphate: metabolite Geranylgeranyl pyrophosphate (medMz 449.186)

SMILES: COc1ccc2c(c1)OC(O)(C(F)(F)C(F)(F)F)CC2=O (stereo not shown) [MMV007839]
- NADH log2 ratio (+MMV007839/-MMV007839) (Av 6hr, 6 μM): -2.783
- NADP+ log2 ratio (+MMV007839/-MMV007839) (Av 6hr, 6 μM): -0.3285
- Octoluse Bisphosphate log2 ratio (+MMV007839/-MMV007839) (Av 6hr, 6 μM): 0.9087
- Ornithine log2 ratio (+MMV007839/-MMV007839) (Av 6hr, 6 μM): -0.4177
- Orotate log2 ratio (+MMV007839/-MMV007839) (Av 6hr, 6 μM): -1.6355
- Orotidine 5-phosphate log2 ratio (+MMV007839/-MMV007839) (Av 6hr, 6 μM): -1.249
- Orotidine log2 ratio (+MMV007839/-MMV007839) (Av 6hr, 6 μM): -0.6749
- PAEF log2 ratio (+MMV007839/-MMV007839) (Av 6hr, 6 μM): 0.8061
- PAVH log2 ratio (+MMV007839/-MMV007839) (Av 6hr, 6 μM): -0.07734
- PD log2 ratio (+MMV007839/-MMV007839) (Av 6hr, 6 μM): 1.197
- PDAV log2 ratio (+MMV007839/-MMV007839) (Av 6hr, 6 μM): 1.2
- PE log2 ratio (+MMV007839/-MMV007839) (Av 6hr, 6 μM): 1.699
- PEE log2 ratio (+MMV007839/-MMV007839) (Av 6hr, 6 μM): 1.042
- PHF log2 ratio (+MMV007839/-MMV007839) (Av 6hr, 6 μM): 0.9826
- PPVQ log2 ratio (+MMV007839/-MMV007839) (Av 6hr, 6 μM): -0.2514
- PVNF log2 ratio (+MMV007839/-MMV007839) (Av 6hr, 6 μM): 0.6194
- PVQ log2 ratio (+MMV007839/-MMV007839) (Av 6hr, 6 μM): 1.502
- PVQA log2 ratio (+MMV007839/-MMV007839) (Av 6hr, 6 μM): -0.1116
- Pantothenate log2 ratio (+MMV007839/-MMV007839) (Av 6hr, 6 μM): -0.4384
- Phenylalanine log2 ratio (+MMV007839/-MMV007839) (Av 6hr, 6 μM): 0.1437
- Phosphoenolpyruvate log2 ratio (+MMV007839/-MMV007839) (Av 6hr, 6 μM): 0.09862
- Pipecolate log2 ratio (+MMV007839/-MMV007839) (Av 6hr, 6 μM): 1.035
- Proline log2 ratio (+MMV007839/-MMV007839) (Av 6hr, 6 μM): 0.2232
- Pyridoxine log2 ratio (+MMV007839/-MMV007839) (Av 6hr, 6 μM): 0.219
- Pyruvate log2 ratio (+MMV007839/-MMV007839) (Av 6hr, 6 μM): 2.1785
- Ribose-5-phosphate log2 ratio (+MMV007839/-MMV007839) (Av 6hr, 6 μM): 0.5462
- S-Adenosyl-L-homocysteine log2 ratio (+MMV007839/-MMV007839) (Av 6hr, 6 μM): -0.1116
- SDGLA log2 ratio (+MMV007839/-MMV007839) (Av 6hr, 6 μM): -0.7918
- SFGD log2 ratio (+MMV007839/-MMV007839) (Av 6hr, 6 μM): -0.1482
- Sedoheptoluse bisphosphate log2 ratio (+MMV007839/-MMV007839) (Av 6hr, 6 μM): -0.5568
- Sedoheptulose-1/7-phosphate log2 ratio (+MMV007839/-MMV007839) (Av 6hr, 6 μM): 0.1885
- Serine log2 ratio (+MMV007839/-MMV007839) (Av 6hr, 6 μM): 0.02139
- Succinate log2 ratio (+MMV007839/-MMV007839) (Av 6hr, 6 μM): 0.1816
- Succinate semialdehyde log2 ratio (+MMV007839/-MMV007839) (Av 6hr, 6 μM): -0.438
- TNVK log2 ratio (+MMV007839/-MMV007839) (Av 6hr, 6 μM): -0.1213
- Threonine log2 ratio (+MMV007839/-MMV007839) (Av 6hr, 6 μM): 0.6908
- Tryptophan log2 ratio (+MMV007839/-MMV007839) (Av 6hr, 6 μM): -0.04867
- Tyrosine log2 ratio (+MMV007839/-MMV007839) (Av 6hr, 6 μM): 0.1841
- UDP log2 ratio (+MMV007839/-MMV007839) (Av 6hr, 6 μM): -0.5016
- UDP-N-acetyl-D-glucosamine log2 ratio (+MMV007839/-MMV007839) (Av 6hr, 6 μM): -0.184
- UDP-glucose log2 ratio (+MMV007839/-MMV007839) (Av 6hr, 6 μM): 0.0071
- UMP log2 ratio (+MMV007839/-MMV007839) (Av 6hr, 6 μM): -0.08541
- Uracil log2 ratio (+MMV007839/-MMV007839) (Av 6hr, 6 μM): -0.6376
- Uric Acid log2 ratio (+MMV007839/-MMV007839) (Av 6hr, 6 μM): -0.1851
- VD log2 ratio (+MMV007839/-MMV007839) (Av 6hr, 6 μM): 1.833
- Valine log2 ratio (+MMV007839/-MMV007839) (Av 6hr, 6 μM): 0.1675
- Xanthine log2 ratio (+MMV007839/-MMV007839) (Av 6hr, 6 μM): -0.5471
- dADP log2 ratio (+MMV007839/-MMV007839) (Av 6hr, 6 μM): -0.4329
- dATP log2 ratio (+MMV007839/-MMV007839) (Av 6hr, 6 μM): 0.01926
- dCDP log2 ratio (+MMV007839/-MMV007839) (Av 6hr, 6 μM): 0.5589
- dGMP log2 ratio (+MMV007839/-MMV007839) (Av 6hr, 6 μM): -0.355
- dTMP log2 ratio (+MMV007839/-MMV007839) (Av 6hr, 6 μM): 0.4667
- dTTP log2 ratio (+MMV007839/-MMV007839) (Av 6hr, 6 μM): 0.06317
- dUMP log2 ratio (+MMV007839/-MMV007839) (Av 6hr, 6 μM): 1.053
- myo-Inositol log2 ratio (+MMV007839/-MMV007839) (Av 6hr, 6 μM): -0.254
- sn-Glycerol 3-phosphate log2 ratio (+MMV007839/-MMV007839) (Av 6hr, 6 μM): 1.275
- sn-glycero-3-Phospho-1-inositol log2 ratio (+MMV007839/-MMV007839) (Av 6hr, 6 μM): 0.1242
- Hexose-phosphate log2 ratio (+MMV007839/-MMV007839) (Av 6hr, 6 μM, medRt 15.0954): -0.2639
- 6-Phospho-D-gluconate log2 ratio (+MMV007839/-MMV007839) (Av 6hr, 6 μM, medRt 16.8944): -0.736
- Hexose-phosphate log2 ratio (+MMV007839/-MMV007839) (Av 6hr, 6 μM, medRt 17.0788): -1.183
- 6-Phospho-D-gluconate log2 ratio (+MMV007839/-MMV007839) (Av 6hr, 6 μM, medRt 17.4636): -0.3794
- Folate level, Log2 (treated vs control) (Exp1, 1hr): -0.2263
- Geranylgeranyl pyrophosphate level, Log2 (treated vs control) (Exp1, 1hr): -0.6569
- Folate level, Log2 (treated vs control) (Exp1, 3hr): -0.3477
- Geranylgeranyl pyrophosphate level, Log2 (treated vs control) (Exp1, 3hr): -0.8295
- Folate level, Log2 (treated vs control) (Exp1, 6hr): -0.6125
- Geranylgeranyl pyrophosphate level, Log2 (treated vs control) (Exp1, 6hr): -0.9068
- Folate level, Log2 (treated vs control) (Exp2, 1hr): -0.1779
- Geranylgeranyl pyrophosphate level, Log2 (treated vs control) (Exp2, 1hr): -0.5207
- Folate level, Log2 (treated vs control) (Exp2, 3hr): -0.4245
- Geranylgeranyl pyrophosphate level, Log2 (treated vs control) (Exp2, 3hr): -0.4872
- Folate level, Log2 (treated vs control) (Exp2, 6hr): -0.3923
- Geranylgeranyl pyrophosphate level, Log2 (treated vs control) (Exp2, 6hr): -0.5435
- Folate level, Log2 (treated vs control) (Exp3, 1hr): -0.2907
- Geranylgeranyl pyrophosphate level, Log2 (treated vs control) (Exp3, 1hr): -0.5583
- Folate level, Log2 (treated vs control) (Exp3, 3hr): -0.3083
- Geranylgeranyl pyrophosphate level, Log2 (treated vs control) (Exp3, 3hr): -0.7313
- Folate level, Log2 (treated vs control) (Exp3, 6hr): -0.4777
- Geranylgeranyl pyrophosphate level, Log2 (treated vs control) (Exp3, 6hr): -0.686
- Ratio, Farnesyl diphosphate (Exp1_1hr): 1.012
- Ratio, Farnesyl diphosphate (Exp1_3hr): 0.9128
- Ratio, Farnesyl diphosphate (Exp1_6hr): 0.7497
- Ratio, Farnesyl diphosphate (Exp2_1hr): 1.018
- Ratio, Farnesyl diphosphate (Exp2_3hr): 1.006
- Ratio, Farnesyl diphosphate (Exp2_6hr): 0.9903
- Ratio, Farnesyl diphosphate (Exp3_1hr): 0.9698
- Ratio, Farnesyl diphosphate (Exp3_3hr): 1
- Ratio, Farnesyl diphosphate (Exp3_6hr): 0.7551
- Ratio, Folate (Exp1_1hr): 0.8548
- Ratio, Folate (Exp1_3hr): 0.7858
- Ratio, Folate (Exp1_6hr): 0.6541
- Ratio, Folate (Exp2_1hr): 0.884
- Ratio, Folate (Exp2_3hr): 0.7451
- Ratio, Folate (Exp2_6hr): 0.7619
- Ratio, Folate (Exp3_1hr): 0.8175
- Ratio, Folate (Exp3_3hr): 0.8076
- Ratio, Folate (Exp3_6hr): 0.7181
- Ratio, Geranylgeranyl pyrophosphate (Exp1_1hr): 0.6342
- Ratio, Geranylgeranyl pyrophosphate (Exp1_3hr): 0.5627
- Ratio, Geranylgeranyl pyrophosphate (Exp1_6hr): 0.5334
- Ratio, Geranylgeranyl pyrophosphate (Exp2_1hr): 0.697
- Ratio, Geranylgeranyl pyrophosphate (Exp2_3hr): 0.7134
- Ratio, Geranylgeranyl pyrophosphate (Exp2_6hr): 0.6861
- Ratio, Geranylgeranyl pyrophosphate (Exp3_1hr): 0.6791
- Ratio, Geranylgeranyl pyrophosphate (Exp3_3hr): 0.6023
- Ratio, Geranylgeranyl pyrophosphate (Exp3_6hr): 0.6216
